# Test results as given in paper PMC10114980, “Triple targeting of mutant EGFR^L858R/T790M, COX-2, and 15-LOX: design and synthesis of novel quinazolinone tethered phenyl urea derivatives for anti-inflammatory and anticancer evaluation” (Journal of Enzyme Inhibition and Medicinal Chemistry, 2023).
# Several values for one entry are separate records, joined by “and”; a condition that tells them apart may be missing. Equal values may be shown once.
# Assays:
# [1] = molecular target: T1, ovine COX-1 (Ovis aries, UniProt P05979); experiment: In vitro COX-1 inhibition assay kit (Cayman); type: biochemical; settings: mean ± SEM, n = 3 replicates
# T1 sequence (P05979 25-600): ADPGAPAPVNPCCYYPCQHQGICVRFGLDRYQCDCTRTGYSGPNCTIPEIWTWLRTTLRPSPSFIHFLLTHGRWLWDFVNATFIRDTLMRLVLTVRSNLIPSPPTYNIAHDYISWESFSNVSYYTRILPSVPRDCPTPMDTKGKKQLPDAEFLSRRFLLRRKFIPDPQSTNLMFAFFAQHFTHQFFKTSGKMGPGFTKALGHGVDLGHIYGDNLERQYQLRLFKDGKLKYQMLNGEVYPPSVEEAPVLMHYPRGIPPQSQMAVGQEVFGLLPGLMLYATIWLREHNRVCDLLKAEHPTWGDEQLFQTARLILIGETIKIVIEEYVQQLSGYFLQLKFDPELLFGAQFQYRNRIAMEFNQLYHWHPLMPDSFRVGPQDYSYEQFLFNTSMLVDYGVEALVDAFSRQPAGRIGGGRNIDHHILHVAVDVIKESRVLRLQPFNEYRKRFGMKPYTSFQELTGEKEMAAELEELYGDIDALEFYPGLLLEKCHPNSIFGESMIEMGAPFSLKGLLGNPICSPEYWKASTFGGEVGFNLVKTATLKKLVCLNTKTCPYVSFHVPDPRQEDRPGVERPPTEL
# Procedure: (§3) The half-maximal inhibitory concentration (IC50, μM) was determined, and the COX-2 selectivity index (SI) was calculated as IC50 (COX-1)/IC50 (COX-2).
# [2] = molecular target: T2, human recombinant COX-2 (Homo sapiens, UniProt P35354); experiment: In vitro COX-2 inhibition assay kit (Cayman); type: biochemical; settings: for COX-2 SI: Selectivity index = COX-1 IC50/COX-2 IC50; for IC50: human recombinant COX-2, mean ± SEM, n = 3 replicates
# T2 sequence (P35354 18-604): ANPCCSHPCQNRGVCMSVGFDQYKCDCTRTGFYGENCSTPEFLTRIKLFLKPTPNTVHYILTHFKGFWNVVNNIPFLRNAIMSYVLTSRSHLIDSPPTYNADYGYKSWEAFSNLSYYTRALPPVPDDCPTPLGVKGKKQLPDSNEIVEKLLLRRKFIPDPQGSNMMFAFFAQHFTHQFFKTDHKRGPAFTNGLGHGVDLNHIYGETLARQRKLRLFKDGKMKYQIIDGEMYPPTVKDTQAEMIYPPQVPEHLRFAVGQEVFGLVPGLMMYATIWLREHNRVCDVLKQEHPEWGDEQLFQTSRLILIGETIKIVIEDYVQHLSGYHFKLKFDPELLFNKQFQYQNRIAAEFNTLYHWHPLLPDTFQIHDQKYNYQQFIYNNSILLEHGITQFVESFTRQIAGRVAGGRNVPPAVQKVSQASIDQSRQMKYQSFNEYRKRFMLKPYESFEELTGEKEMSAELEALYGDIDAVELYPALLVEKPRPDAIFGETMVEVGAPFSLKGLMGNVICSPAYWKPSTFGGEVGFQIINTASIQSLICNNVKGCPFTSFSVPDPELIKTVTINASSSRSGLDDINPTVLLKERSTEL
# Procedure: as §3
# [3] = tested on: LPS-induced NO production in RAW 264.7 cells; experiment: NO production in LPS-activated RAW 264.7 macrophage cells (DAF-FM diacetate); type: cell-based; settings: LPS-activated RAW 264.7 cells, mean ± SEM, three replicates; for IC50: Mus musculus, RAW264.7
# Procedure: TNF-α and IL-6 production were detected in RAW 264.7 macrophage cell culture supernatants following the induction of inflammation by LPS. Moreover, the probes of oxidative species 2,7-dichlorofluorescein diacetate (DCFH-DA) (Molecular Probes) and NO, 4-amino-5-methylamino-2,7-difluorofluorescein diacetate (DAF-FM diacetate) (Molecular Probes) were used to investigate the antioxidant and NO production inhibitory potential of the test compounds. Briefly, RAW 264.7 cells were cultured in black 96 well plates (200 000 cells/mL, 100 µl/well) for 24 h followed by the incubation with the individual test compounds or the reference drugs at different concentrations (12.5, 25, 50, and 100 µM) for 2 h at 37 °C. LPS was then added at a final concentration of 1 µg/mL for an additional 18 h. The cell culture supernatant was collected from cells treated with the different compounds at 25 µM to measure TNF-α and IL-6 levels (1:10 dilution) using DuoSet ELISA kits (R&D Systems, Minneapolis, MN) following the manufacturer’s instructions. Then, the plates were washed to perform ROS and NO detection assays as detailed in our previous studies[16]^,[27].
# [4] = tested on: LPS-induced TNF-α production in RAW 264.7 cells; experiment: TNF-α production in LPS-activated RAW 264.7 cells (ELISA); type: cell-based; settings: for TNF-α concentration: LPS-activated RAW 264.7 cells treated with 25 µM of the compound
# [5] = tested on: A549/ATCC; experiment: NCI single dose screen, A549/ATCC; type: cell-based; settings: Homo sapiens, non-small cell lung cancer, single dose 10^−5 M, read-out: growth inhibition percentage
# Procedure: (§1) Screening of the anticancer activity of the newly synthesised compounds (6a, 6c, 6d, 6e, 6j, 6l, 6m, 6n, 6o, and 6p) was performed by the US National Cancer Institute (NCI) using 60 different human tumour cell lines in accordance with standard procedures formerly reported.
# (§2) In vitro anticancer screening was carried out for the selected compounds at a single dose (10^−5 M) against 60 different human tumour cell lines of nine different cancer cell types: leukaemia, lung, colon, CNS, melanoma, ovarian, renal, prostate, and breast cancers.
# [6] = tested on: NCI-H322M; experiment: NCI single dose screen, NCI-H322M; type: cell-based; settings: Homo sapiens, non-small cell lung cancer, single dose 10^−5 M, read-out: growth inhibition percentage
# Procedure: as §1, §2
# [7] = tested on: NCI-H460; experiment: NCI single dose screen, NCI-H460; type: cell-based; settings: Homo sapiens; NCI-H460, non-small cell lung cancer; single dose 10^−5 M; read-out: growth inhibition percentage
# Procedure: as §1, §2
# [8] = tested on: HCT-15; experiment: NCI single dose screen, HCT-15; type: cell-based; settings: Homo sapiens; HCT-15, colon cancer; single dose 10^−5 M; read-out: growth inhibition percentage
# Procedure: as §1, §2
# [9] = tested on: SF-539; experiment: NCI single dose screen, SF-539; type: cell-based; settings: Homo sapiens, read-out: growth inhibition percentage
# Procedure: as §1, §2
# [10] = tested on: SNB-19; experiment: NCI single dose screen, SNB-19; type: cell-based; settings: Homo sapiens; SNB-19, CNS cancer; single dose 10^−5 M; read-out: growth inhibition percentage
# Procedure: as §1, §2
# [11] = tested on: SNB-75; experiment: NCI single dose screen, SNB-75; type: cell-based; settings: Homo sapiens; SNB-75, CNS cancer; single dose 10^−5 M; read-out: growth inhibition percentage
# Procedure: as §1, §2
# [12] = tested on: MDA-MB-435; experiment: NCI single dose screen, MDA-MB-435; type: cell-based; settings: Homo sapiens; MDA-MB-435, melanoma; single dose 10^−5 M; read-out: growth inhibition percentage
# Procedure: as §1, §2
# [13] = tested on: MCF7; experiment: NCI single dose screen, MCF7; type: cell-based; settings: Homo sapiens; MCF7, breast cancer; single dose 10^−5 M; read-out: growth inhibition percentage
# Procedure: as §1, §2
# [14] = tested on: HS 578T; experiment: NCI single dose screen, HS 578T; type: cell-based; settings: Homo sapiens, breast cancer, single dose 10^−5 M, read-out: growth inhibition percentage
# Procedure: as §1, §2
# [15] = 25 µM, LPS-activated RAW 264.7 cells
SMILES,IC50 [1] [µM],COX-2 SI [2],IC50 [2] [µM],IC50 [3] [µM],TNF-α concentration [4],inhibition at 10 µM [5] [%],inhibition at 10 µM [6] [%],inhibition at 10 µM [7] [%],inhibition at 10 µM [8] [%],inhibition at 10 µM [9] [%],inhibition at 10 µM [10] [%],inhibition at 10 µM [11] [%],inhibition at 10 µM [12] [%],inhibition at 10 µM [13] [%],inhibition at 10 µM [14] [%],melting point [°C],NO IC50 [3],"TNF-α level, times lower than celecoxib [4, 15] [times]","TNF-α level, times lower than diclofenac [4, 15] [times]"
"COc1ccc(C2N(NC(=O)Nc3ccc(F)cc3)C(=O)c3ccccc3N2C)cc1 (stereo not shown) [Compound 6p, 1-(4-Fluorophenyl)-3-(2–(4-methoxyphenyl)-1-methyl-4-oxo-1,4-dihydroquinazolin-3(2H)-yl)urea]",88.5 ± 3.01,9.54,9.28 ± 1.04,10.84 ± 0.05,1549.00 ± 20.25 pg/mL,< 10,< 10,< 10,< 10,< 10,< 10,< 10,10.7,14.7,< 10,224 to 226,,,
"CN1CN(NC(=O)Nc2ccccc2)C(=O)c2ccccc21 [Compound 6a, 1-(1-Methyl-4-oxo-1,4-dihydroquinazolin-3(2H)-yl)-3-phenylurea]",12.5 ± 1.36,0.18,68.3 ± 1.89,0.97 ± 1.67,1157.00 ± 78.71 pg/mL,< 10,< 10,< 10,< 10,< 10,< 10,< 10,< 10,< 10,< 10,240 to 241,,,
"CN1c2ccccc2C(=O)N(NC(=O)Nc2ccccc2)C1c1ccc([N+](=O)[O-])cc1 (stereo not shown) [Compound 6e, 1-(1-Methyl-2-(4-nitrophenyl)-4-oxo-1,4-dihydroquinazolin-3(2H)-yl)-3-phenylurea]",9.53 ± 1.21,11.48,0.83 ± 1.37,> 100,1929.00 ± 53.88 pg/mL,< 10,< 10,< 10,< 10,< 10,< 10,< 10,< 10,< 10,< 10,241 to 243,did not show any significant NO inhibitory activity,,
"CN1c2ccccc2C(=O)N(NC(=O)Nc2ccccc2)C1c1ccc(F)cc1 (stereo not shown) [Compound 6d, 1-(2-(4-Fluorophenyl)-1-methyl-4-oxo-1,4-dihydroquinazolin-3(2H)-yl)-3-phenylurea]",4.56 ± 1.33,2.20,2.07 ± 1.39,4.12 ± 0.65,1222.00 ± 12.70 pg/mL,< 10,< 10,< 10,< 10,< 10,< 10,13.8,< 10,< 10,< 10,230 to 232,,,
"CN1c2ccccc2C(=O)N(NC(=O)Nc2ccc(F)cc2)C1c1ccc([N+](=O)[O-])cc1 (stereo not shown) [Compound 6o, 1-(4-Fluorophenyl)-3–(1-methyl-2-(4-nitrophenyl)-4-oxo-1,4-dihydroquinazolin-3(2H)-yl)urea]",> 100,,10.1 ± 1.01,1.97 ± 1.45,39.37 pg/mL and 39.37 ± 1.21 pg/mL,< 10,< 10,< 10,10.7,< 10,11.4,< 10,19.9,17.9,< 10,250 to 252,,~10,~17
"CC1N(NC(=O)Nc2ccc(F)cc2)C(=O)c2ccccc2N1C (stereo not shown) [Compound 6l, 1–(1,2-Dimethyl-4-oxo-1,4-dihydroquinazolin-3(2H)-yl)-3-(4-fluorophenyl)urea]",,0.05,1.49 ± 1.11,5.24 ± 0.5,1250.00 ± 5.82 pg/mL,< 10,< 10,< 10,< 10,< 10,< 10,< 10,< 10,10.7,< 10,187 to 190,,,
